# Where two headings read alike, the source gives them in different places.
# Tests used:
# [1] = rodents; cited from earlier work
# Formalin animal model = details: oral civamide; cited from earlier work
# Chung animal model = details: oral civamide; cited from earlier work
# hot-plate animal model = details: oral civamide; cited from earlier work
# [2] = dogs; cited from earlier work
# [3] = cited from earlier work; for efficacy in painful, inflammatory or allergic disorders: compared with capsaicin compositions; for localized burning and stinging / local adverse effects: compared with capsaicin
# normal volunteers = assay: Abdominal distress / gastrointestinal discomfort after oral capsules in normal human volunteers; format: in vivo; details: soft gel capsules (not enteric coated)
smiles,measurement,setting,value
"COc1cc(CNC(=O)CCCC/C=C\C(C)C)ccc1O [civamide, cis-8-methyl-N-vanillyl-6-nonenamide]",absorption of an administered oral dose,[1],8-12%
same,analgesia,Formalin animal model,effective analgesia
same,analgesia,Chung animal model,effective analgesia
same,analgesia,hot-plate animal model,effective analgesia
same,absorption of an administered oral dose,[2],8-12%
same,"efficacy in painful, inflammatory or allergic disorders",[3],comparable in efficacy
same,"efficacy in painful, inflammatory or allergic disorders",[3]; listed as Civamide,effective
same,localized burning and stinging / local adverse effects,[3],significantly less local adverse effects
same,localized burning and stinging / local adverse effects,[3]; listed as Civamide,significantly less of the localized burning and stinging
same,abdominal distress / local burning and discomfort in the gastrointestinal tract,normal volunteers,more local burning and discomfort in the gastrointestinal tract than comparable dosages of capsaicin
